In PubChem BioAssay AID192 (DTP/NCI, 2004) one finds T/C data, which are given here for 21 compounds.

For the assay, the system named is BDF1 mice, B16 melanoma ip, median survival T/C. In words: NCI In Vivo Anticancer Drug Screen. Data for tumor model B16 Melanoma (intraperitoneal) in B6D2F1 (BDF1) mice. To be noted: endpoint: median survival time, schedule: Q01DX009 (ip), higher = longer survival. As for the experimental part:
The antitumor activity of compounds was measured in mice bearing transplantable tumors. Survival or tumor size were measured and the results are expressed as the measurement made in the treated group (T) divided by the measurement made in the vehicle treated control group (C). The tumor model used in this assay is B16 Melanoma (intraperitoneal) in B6D2F1 (BDF1) mice

The mark [1] stands for this setting: dose: 100.0 mg/kg/injection, vehicle: saline with Tween-80.
Where [2] appears, read: dose: 200.0 mg/kg/injection, vehicle: saline with Tween-80.
The mark [3] stands for this setting: dose: 50.0 mg/kg/injection, vehicle: saline.
Where [4] appears, read: dose: 100.0 mg/kg/injection, vehicle: saline.
Where [5] appears, read: dose: 100.0 mg/kg/injection, vehicle: Klucel (hydroxypropylcellulose) (HPC).
[6] abbreviates: dose: 200.0 mg/kg/injection, vehicle: Klucel (hydroxypropylcellulose) (HPC).
[7] abbreviates: dose: 400.0 mg/kg/injection, vehicle: Klucel (hydroxypropylcellulose) (HPC).
The mark [8] stands for this setting: dose: 3.12 mg/kg/injection, vehicle: saline.
The mark [9] stands for this setting: dose: 12.5 mg/kg/injection, vehicle: saline.
The mark [10] stands for this setting: dose: 25.0 mg/kg/injection, vehicle: saline.
Setting [11] is: dose: 3.0 mg/kg/injection, vehicle: Klucel (hydroxypropylcellulose) (HPC).
[12] abbreviates: dose: 25.0 mg/kg/injection, vehicle: saline with Tween-80.
[13] abbreviates: dose: 50.0 mg/kg/injection, vehicle: saline with Tween-80.
[14] abbreviates: dose: 12.5 mg/kg/injection, vehicle: saline with Tween-80.

Where “and” joins values, the source holds several entries; their conditions need not be identical. Equal values may be shown once. Inconclusive results and toxic doses are left out.

As to `CC(=O)CCc1ccc(O)cc1`, the T/C is, setting by setting: under setting [1], 90 % of control; under setting [2], 100 % of control; (dose: 400.0 mg/kg/injection, vehicle: saline with Tween-80) 92 % of control.

Turning to `CC(C)(C)OC(=O)NC(CCC(N)=O)C(=O)O` (stereo unspecified), the T/C by setting is: under setting [3], 96 % of control; under setting [4], 97 % of control; (dose: 200.0 mg/kg/injection, vehicle: saline) 96 % of control.

Consider `Brc1cnc(OCc2ccccc2)nc1OCc1ccccc1`, for which the T/C by setting is: under setting [5], 118 % of control; under setting [6], 110 % of control; under setting [7], 107 % of control.

On to `CC(C)C[CH2][Pb]([Cl])([CH2]CC(C)C)[CH2]CC(C)C`, for which the T/C runs as follows: (dose: 0.06 mg/kg/injection, vehicle: saline) 95 % of control; (dose: 0.12 mg/kg/injection, vehicle: Klucel (hydroxypropylcellulose) (HPC)) 100 % of control; (dose: 0.12 mg/kg/injection, vehicle: saline) 104 % of control; (dose: 0.25 mg/kg/injection, vehicle: saline) 96 % of control; (dose: 0.5 mg/kg/injection, vehicle: Klucel (hydroxypropylcellulose) (HPC)) 93 % of control; (dose: 0.5 mg/kg/injection, vehicle: saline) 100 % of control. The T/C is, setting by setting: (dose: 1.0 mg/kg/injection, vehicle: Klucel (hydroxypropylcellulose) (HPC)) 89 % of control; (dose: 1.0 mg/kg/injection, vehicle: saline) 104 % of control; (dose: 2.0 mg/kg/injection, vehicle: saline) 101 % of control; (dose: 4.0 mg/kg/injection, vehicle: saline) 98 % of control; (dose: 8.0 mg/kg/injection, vehicle: saline) 94 % of control.

On to `Cc1cc2nc3ccc(=[N+](C)C)cc-3sc2cc1N`, for which the T/C is 116 % of control under setting [8], 116 % of control under setting [9], 107 % of control under setting [10] and 97 % of control under setting [3].

As to `CCC[CH2][Sn]1([CH2]CCC)[N](S(=O)(=O)c2ccc(C)cc2)c2ccccc2[N]1S(=O)(=O)c1ccc(C)cc1`, the T/C runs as follows: (dose: 1.5 mg/kg/injection, vehicle: Klucel (hydroxypropylcellulose) (HPC)) 87 % of control; under setting [11], 102 % of control.

`O=C(CC(=O)C(F)(F)C(F)(F)C(F)(F)F)c1csc2ccccc12`: the T/C runs as follows: under setting [12], 97 % of control; under setting [13], 100 % of control; under setting [1], 92 % of control.

Regarding `Cc1ccc(Cl)cc1NC(=O)CCl`, the T/C is 102 % of control under setting [12], 100 % of control under setting [13] and 102 % of control under setting [1].

In the case of `CC1=C(CCC(=O)O)c2cc3nc(cc4[nH]c(cc4C)cc4[nH]c(cc1n2)cc4C)C(C)(C)C3CCC(=O)O` (stereo unspecified), the T/C under setting [11] was 109 % of control; the T/C (dose: 6.0 mg/kg/injection, vehicle: Klucel (hydroxypropylcellulose) (HPC)) was 101 % of control; the T/C (dose: 12.0 mg/kg/injection, vehicle: Klucel (hydroxypropylcellulose) (HPC)) is 90 % of control; the T/C (dose: 24.0 mg/kg/injection, vehicle: Klucel (hydroxypropylcellulose) (HPC)) is 104 % of control.

For `C=CC(=O)NCNC(=O)C=C`, the T/C under setting [14] is 104 % of control; the T/C under setting [9] is 110 % of control; the T/C under setting [12] is 99 % of control; the T/C under setting [10] is 102 % of control; the T/C under setting [13] was 103 % of control; the T/C under setting [3] is 109 % of control. In addition, the T/C was 107 % of control under setting [1] and 102 % of control under setting [4].

Take `O=[N+]([O-])c1cc(Cl)cc2c1nc(NCCO)c1ccccc12`: the T/C runs as follows: under setting [14], 97 % of control; under setting [12], 97 % of control.

In the case of `CCOC(=O)c1c(NC(=O)CCC(=O)Nc2sc(C)c(C)c2C(=O)OCC)sc(C)c1C`, the T/C reads like this: (dose: 0.09 mg/kg/injection, vehicle: Klucel (hydroxypropylcellulose) (HPC)) 100 % of control; (dose: 0.19 mg/kg/injection, vehicle: Klucel (hydroxypropylcellulose) (HPC)) 95 % of control; (dose: 0.39 mg/kg/injection, vehicle: Klucel (hydroxypropylcellulose) (HPC)) 100 % of control; (dose: 0.78 mg/kg/injection, vehicle: Klucel (hydroxypropylcellulose) (HPC)) 89 % of control; (dose: 1.56 mg/kg/injection, vehicle: Klucel (hydroxypropylcellulose) (HPC)) 95 % of control.

For `C=CCC(C(C)=O)C(=O)OCC` (stereo unspecified), the T/C was 106 % of control under setting [5], 110 % of control under setting [6] and 110 % of control under setting [7].

On to `O=C(O)c1cccc2[nH]c(=O)oc(=O)c12`, for which the T/C was 89 % of control under setting [1] and 91 % of control under setting [2].

Take `O=[N+]([O-])c1ccc(Cl)c2c([N+](=O)[O-])cccc12`: the T/C is 100 % of control under setting [14]; 91 % of control under setting [12]; 93 % of control and 94 % of control under setting [13].

Take `CCCCc1c(C)[nH]c(=S)[nH]c1=O`: the T/C was 110 % of control under setting [12], 104 % of control under setting [13] and 97 % of control under setting [1].

For the compound `CC1=CC(=Nc2ccc(N(CCCl)CCCl)cc2)C=C(C)C1=O`, the T/C runs as follows: (dose: 3.12 mg/kg/injection, vehicle: Klucel (hydroxypropylcellulose) (HPC)) 102 % of control and 110 % of control; (dose: 12.5 mg/kg/injection, vehicle: Klucel (hydroxypropylcellulose) (HPC)) 160 % of control; (dose: 25.0 mg/kg/injection, vehicle: Klucel (hydroxypropylcellulose) (HPC)) 160 % of control; under setting [5], 158 % of control.

`[Cl][Pt+2][Cl].[NH-]c1ccc([N+](=O)[O-])cc1[NH-]`: the T/C reads like this: (dose: 5.0 mg/kg/injection, vehicle: saline with Tween-80) 103 % of control; (dose: 10.0 mg/kg/injection, vehicle: saline with Tween-80) 107 % of control; (dose: 20.0 mg/kg/injection, vehicle: saline with Tween-80) 107 % of control; (dose: 40.0 mg/kg/injection, vehicle: saline with Tween-80) 118 % of control; (dose: 80.0 mg/kg/injection, vehicle: saline with Tween-80) 115 % of control.

Take `CCC[CH2][Sn]1([CH2]CCC)[O]OC(c2ccc(C)cc2)[O]1` (stereo unspecified): the T/C reads like this: (dose: 0.38 mg/kg/injection, vehicle: saline with Tween-80) 96 % of control; (dose: 0.75 mg/kg/injection, vehicle: saline with Tween-80) 96 % of control; (dose: 1.5 mg/kg/injection, vehicle: saline with Tween-80) 101 % of control; (dose: 3.13 mg/kg/injection, vehicle: saline with Tween-80) 115 % of control.

As for `C=CN1CCCC1=O`, the T/C (dose: 178.0 mg/kg/injection, vehicle: saline) is 109 % of control; the T/C (dose: 266.0 mg/kg/injection, vehicle: saline) is 100 % of control; the T/C (dose: 400.0 mg/kg/injection, vehicle: saline) is 104 % of control; the T/C (dose: 600.0 mg/kg/injection, vehicle: saline) is 111 % of control; the T/C (dose: 750.0 mg/kg/injection, vehicle: saline) was 108 % of control.

For the compound `CC1NCCOC1c1ccccc1` (stereo unspecified), the T/C runs as follows: under setting [8], 100 % of control; (dose: 6.25 mg/kg/injection, vehicle: saline) 97 % of control; under setting [9], 104 % of control; under setting [10], 90 % of control and 124 % of control; under setting [3], 90 % of control and 113 % of control; under setting [4], 111 % of control.
